The target in this assay is T1, glucocorticoid receptor (GR) (Homo sapiens, UniProt P04150).
T1 construct: endogenous in cells; host or cells: HeLa (ATCC) cell lysate supernatant
T1 sequence (P04150 1-777): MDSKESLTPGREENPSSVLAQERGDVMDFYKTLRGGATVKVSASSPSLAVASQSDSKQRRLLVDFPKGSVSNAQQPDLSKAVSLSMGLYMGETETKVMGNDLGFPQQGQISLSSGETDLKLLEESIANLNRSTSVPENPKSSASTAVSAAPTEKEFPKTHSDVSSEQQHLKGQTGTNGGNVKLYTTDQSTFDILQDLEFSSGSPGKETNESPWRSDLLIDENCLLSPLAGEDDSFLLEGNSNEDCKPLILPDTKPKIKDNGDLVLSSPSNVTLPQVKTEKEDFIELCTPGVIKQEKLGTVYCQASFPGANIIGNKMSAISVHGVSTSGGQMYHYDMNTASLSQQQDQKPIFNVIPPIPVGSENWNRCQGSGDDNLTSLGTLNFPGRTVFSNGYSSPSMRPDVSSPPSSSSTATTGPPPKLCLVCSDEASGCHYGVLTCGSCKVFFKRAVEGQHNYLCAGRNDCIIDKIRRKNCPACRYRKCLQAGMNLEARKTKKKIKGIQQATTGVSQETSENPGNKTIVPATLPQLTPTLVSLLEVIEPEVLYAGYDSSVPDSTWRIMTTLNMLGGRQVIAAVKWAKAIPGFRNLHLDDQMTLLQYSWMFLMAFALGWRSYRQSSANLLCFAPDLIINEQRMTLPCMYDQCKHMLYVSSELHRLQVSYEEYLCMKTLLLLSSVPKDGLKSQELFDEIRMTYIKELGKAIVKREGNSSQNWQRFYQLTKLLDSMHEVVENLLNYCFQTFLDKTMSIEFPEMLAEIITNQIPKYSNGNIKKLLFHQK
Nature of the assay: GR Ligand Binding Assay (3H-dexamethasone displacement, HeLa cell lysate). The following applies: 3H-DEX trace, DEX as reference, read-out: GR BIND Ki. The procedure: Binding Buffer: TEGM (10 mM Tris-HCl, 1 mM EDTA, 10% glycerol, 1 mM beta-mecaptoethanol, 10 mM Sodium Molybdate, pH 7.2)
Dexmethasone-methyl-^3H, (DEX*); (Amersham cat# TRK645) Dexamethasone(DEX) (Sigma, cat# D1756):
Cells (Hall R. E., et al., European Journal of Cancer, 30A: 484-490 (1994)) HeLa (ATCC) cultured in RPMI 1640 (Gibco 11835-055) containing 20 mM Hepes, 4 mM L-glu, 10 ug/ml of human insulin (Sigma, I-0259), 10% FBS and 20 ug/ml of Gentamicin (Gibco#15710-072) are rinsed twice in PBS. Phenol red-free Trypsin-EDTA is diluted in the same PBS 1:10. The cell layers are rinsed with 1× Trypsin, extra Trypsin is poured out, and the cell layers are incubated at 37° C. for ˜2 min. The flask is tapped and checked for signs of cell detachment. Once the cells begin to slide off the flask, the complete media is added. The cells are counted at this point, then diluted to the appropriate concentration and split into flasks or dishes for further culturing (Usually 1:3 to 1:6 dilution).
When the cells are 70 to 85% confluent, they are detached as described above, and collected by centrifuging at 1000 g for 10 minutes at 4° C. The cell pellet is washed twice with TEGM (10 mM Tris-HCl, 1 mM EDTA, 10% glycerol, 1 mM beta-mercaptoethanol, 10 mM Sodium Molybdate, pH 7.2). After the final wash, the cells are resuspended in TEGM at a concentration of 10^7 cells/mL. The cell suspension is snap frozen in liquid nitrogen or ethanol/dry ice bath and transferred to −80° C. freezer on dry ice. Before setting up the binding assay, the frozen samples are left on ice-water to just thaw (˜1 hr). Then the samples are centrifuged at 12,500 g to 20,000 g for 30 min at 4° C. The supernatant is used to set-up assay right away. If using 50 μL of supernatant, the test compound can be prepared in 50 μL of the TEGM buffer.
1×TEGM buffer is prepared, and the isotope-containing assay mixture is prepared in the following order: EtOH (2% final concentration in reaction), ^3H-DEX (Amersham Biosciences) and 1×TEGM. [e.g. For 100 samples, 200 μL (100×2) of EtOH+4.25 μL of 1:10 ^3H—Dex stock+2300 μL (100×23) 1×TEGM]. The compound is serially diluted, e.g., if starting final conc. is 1 μM, and the compound is in 25 μL of solution, for duplicate samples, 75 μL of 4×1 μM solution is made and 3 μL of 100 μM is added to 72 μL of buffer, and 1:5 serial dilution.
25 μL, of 3H-DEX (6 nM) trace and 25 μL compound solution are first mixed together, followed by addition of 50 μL receptor solution. The reaction is gently mixed, spun briefly at about 200 rpm and incubated at 4° C. overnight. 100 μL of 50% HAP slurry is prepared and added to the incubated reaction which is then vortexed and incubated on ice for 5 to 10 minutes. The reaction mixture is vortexed twice more to resuspend HAP while incubating reaction. The samples in 96-well format are then washed in wash buffer using The FilterMate™ Universal Harvester plate washer (Packard). The washing process transfers HAP pellet containing ligand-bound expressed receptor to Unifilter-96 GF/B filter plate (Packard). The HAP pellet on the filter plate is incubated with 50 μL of MICROSCINT (Packard) scintillint for 30 minutes before being counted on the TopCount microscintillation counter (Packard). IC50s are calculated using DEX as a reference.
Usually Ki stands for the equilibrium dissociation constant of an inhibitor or competing ligand from its target. Consider `C[C@]12Cc3cnn(-c4ccc(F)cc4)c3C=C1CC[C@@]2(CO)CC(O)c1ccncc1` (single isomer, unassigned) [Example 17b], for which the Ki came out at 7.5 nM.

`C[C@]12Cc3cnn(-c4ccc(F)cc4)c3C=C1CC[C@@]2(CO)CC(O)c1ccccc1Cl` (single isomer, unassigned) [Example 3a]: the Ki was determined as 0.9 nM.

With `C[C@]12Cc3cnn(-c4ccc(F)cc4)c3C=C1CC[C@@]2(CO)CC(O)c1cc(F)cc(Cl)c1` (single isomer, unassigned) [Example 6b], the Ki amounted to 1.3 nM.

With `C[C@]12Cc3cnn(-c4ccc(F)cc4)c3C=C1CC[C@@]2(CO)CC(O)c1ccncc1` (single isomer, unassigned) [Example 17a], the Ki amounted to 6.4 nM.

On to `C[C@]12Cc3cnn(-c4ccc(F)cc4)c3C=C1CC[C@@]2(CO)CC(O)C1CC1` (single isomer, unassigned) [Example 20a, 1-cyclopropyl-2-[(4αS)-1-(4-fluorophenyl)-5-(hydroxymethyl)-4α-methyl-1,4,4α,5,6,7-hexahydrocyclopenta[f]indazol-5-yl]ethanol], for which the inhibition constant (Ki) is 22.6 nM.

In the case of `COc1cccnc1C(O)C[C@]1(CO)CCC2=Cc3c(cnn3-c3ccc(F)cc3)C[C@@]21C` (single isomer, unassigned) [Example 21b], the Ki is 3.7 nM.

The values are drawn from US20120095055A1, “HEXAHYDROCYCLOPENTYL[f]INDAZOLE 5-HYDROXYMETHYL ETHANOLS AND DERIVATIVES THEREOF AS SELECTIVE GLUCOCORTICOID RECEPTOR MODULATORS” (Merck Sharp & Dohme, Corp., priority 2009, published 2012).
